Measurements: patent US20220274983A1, “JAK KINASE INHIBITOR AND USE THEREOF” (JIANGSU CAREPHAR PHARMACEUTICAL CO., LTD., priority 2019, published 2022)

Legend:
JAK1 = JAK1 (Homo sapiens, UniProt P23458); experiment: JAK kinase inhibitory activity, HTRF biochemical assay
Experimental: (§1) The compounds of the above embodiments were applied to the detection and screening of JAK kinase inhibitory activity.
(§2) A corresponding volume of DMSO was added to each well of a first 96-well plate. 20-30 μL of 100-200 μM stock solution of different test compounds were added to each well. The mixture was shaken and mixed for 3 min. All of the compounds were subjected to 3× serial dilution. 60-80 μL Kinase buffer was added to each well of a second 96-well plate, and 1-2 μL of the solution taken from each well of the first 96-well plate was added to the corresponding well of the second 96-well plate. The mixture was shaken and mixed for 3 min. 5 μL of compound dilution taken from each well of the second compound dilution plate was transferred to the corresponding well of a 384-well test plate. 1-2 μL TK Substrate-biotin was added to each well of the test plate. 1-2 μL of enzyme mixture was added to each well. At the same time, a blank well without enzyme was set. 1-2 μL of ATP solution was added to each well, the plate was sealed and reacted at room temperature. The reaction time was as follows: JAK1: 2 h, JAK2: 30 min, JAK3: 30 min, and TYK2: 50 min. 3-5 μL of Streptavidin-XL665 and 3-5 μL of TK Antibody-cryptate were added to each well, the plate was sealed and allowed to stand at room temperature for 30 min to complete the reaction.
(§3) The percentage of inhibition was calculated based on the following formula:
(§4) Inhibition %=[(Ratiomax−Ratiocompound)/(Ratiomax−Ratiomin)]×100%
(§5) Ratiocompound is the HTRF ratio at a given compound concentration, Ratiomin is the HTRF ratio added to the blank well, and Ratiomax is the HTRF ratio without adding the compound. GraphPad Prism 5.0 software was used to plot a sigmoid dose-inhibition rate curve with a non-linear regression model and calculate the IC50 value.

JAK2 = JAK2 (Homo sapiens, UniProt O60674); experiment: as above
Experimental: as §1, §2, §3, §4, §5

Hela cells = experiment: Proliferation inhibition based on Hela cells (OSM stimulation, CTG); assay type: cell-based; conditions: Homo sapiens, OSM stimulation, read-out: IC50 (uM), proliferation inhibitory activity on Hela cells
Experimental: (§6) 1. Cell plating: cultured cells were collected and counted for viable cells with Vi-Cell XR cell counter. The cell suspension was adjusted to an appropriate concentration with the medium and then added to a 96-well cell culture plate. 50 μL-100 μL of the cell suspension was added to each well of the 96-well cell culture plate. The cell plating density depended on the growth rate of the cells. The cells were cultured in corresponding incubators.
2. Drug Treatment and OSM Stimulation
Firstly, a series of test compound concentration (work solution-1) was prepared using DMSO with 3× gradient dilution, and then it was subjected to fold dilution with RPMI1640+10% FBS to obtain a work solution-2; Cisplatin's work solution-2 was prepared with RPMI1640+10% FBS, and then 1-10 μL solution taken from the work solution-2 was added to the prepared cell wells containing medium. After incubation, 1-10 μL of OSM medium was added to each well and continued to culture. An appropriate CTG solution was added to each well. The mixture was shaken and mixed for 1-5 min and then a luminescence signal was determined with an Envision2104 plate reader.
(§7) Cell Survival Rate Calculation
(§8) T is the luminescence reading of a drug treatment group, and C is the average luminescence reading of a solvent control group.

BaF3 cells = experiment: Proliferation inhibition based on BaF3 cells (IL-3 medium, CTG); assay type: cell-based; conditions: Mus musculus, medium containing IL-3, read-out: IC50 (uM), proliferation inhibitory activity on BaF3 cells
Experimental: 1. Cell plating: cultured cells were collected with RPMI1640+10% FBS (containing IL-3) medium and counted for viable cells with Vi-Cell XR cell counter. The cell suspension was adjusted to an appropriate concentration with RPMI1640+10% FBS (containing IL-3) medium and then added to a 96-well cell culture plate. A certain amount of cell suspension was added to each well of the 96-well cell culture plate. The cells were cultured in corresponding incubators.
(§9) 2. Drug treatment: a series of test compound concentration (work solution-1) was prepared using DMSO with 3× gradient dilution, and then it was subjected to fold dilution with RPMI1640+10% FBS (containing IL-3) to obtain a work solution-2; Cisplatin's work solution-2 was prepared with RPMI1640+10% FBS (containing IL-3), and then 1-10 μL solution taken from the work solution-2 was added to the prepared cell wells containing medium. The cells were cultured in the corresponding incubators. An appropriate CTG solution was added to each well.
as §7, §8

THP1 cells = experiment: Proliferation inhibition based on THP1 cells (IL-4 stimulation, CTG); assay type: cell-based; conditions: Homo sapiens, THP-1, read-out: IC50 (uM), proliferation inhibitory activity on THP1 cells
Experimental: as §6, with “80” for “50 μL-100”
as §9, with “treatment and IL-4 stimulation: firstly,” for “treatment:”, “FBS” for “FBS (containing IL-3)”, “FBS,” for “FBS (containing IL-3),”, “incubators. After incubation, 1-10 μL of IL-4 medium was added to each well and continued to culture.” for “incubators.”
Cell Survial Rate Calculation
as §8

rat CIA model [1] = experiment: Hindfoot foot volume in rat CIA model; assay type: in vivo, Lewis rats; conditions: CIA rats, hindfoot, 2 mg/kg oral gavage once daily for 2 w
Experimental: (§10) Lewis rats (female, 10-12 weeks old) were obtained from Beijing Vital River Laboratory Animal Technology Co., Ltd. The rats were on a light and dark alternation for 12 h, and the environment was kept at a temperature of 23±2° C. and a humidity of 40-70%.
(§11) Type II collagen solution (2 mg/mL) was prepared with 0.05 M acetic acid solution to allow to be fully dissolved, and placed overnight in the dark at 4° C. During the test, 2 mg/mL type II collagen (C II) solution and 4 mg/mL complete Freund's adjuvant (CFA) solution were mixed in equal volumes under ice bath conditions to fully emulsify. On day 0, an emulsion prepared by mixing equal volumes of C II (2 mg/mL) and CFA (4 mg/mL) was injected intracutaneously into the base of the tail of experimental rats for primary immunization, and on day 7, secondary booster immunization was performed.
(§12) The therapeutic effect of the test compound was tested in a rat CIA model. The rats were randomly divided into groups with 8 animals in each group. All animals were immunized on day 0 and boosted on day 7.
(§13) Therefore, the differences in body weight and foot volume after the onset of arthritis compared with the negative group, respectively, can be used to evaluate the therapeutic effect in the rat model. The experimental data were expressed as Mean±SEM; the data between the two groups was tested by unpaired t-test and p<0.05 was considered as a significant difference.

Body weight of CIA rats = conditions: 2 mg/kg oral gavage once daily for 2 w
Experimental: as §10, §11, §12, §13

rat CIA model [2] = experiment: Arthritis index (AI) of extremities in rat CIA model; conditions: CIA rats, 2 mg/kg oral gavage once daily for 2 w, score 0-16;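 further: rats immunized with type II collagen plus complete Freund's adjuvant on day 0, boosted day 7, groups of 8, each paw graded 0-4 for swelling or redness, higher means worse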
Experimental: as §10, §11, §12
Foot volume was scored for the swelling of four toes at the same time, the score for each foot was 0-4, and the highest score for each rat was 16. 0—no swelling, normal appearance; 1—mild swelling or redness of the ankle joint, wrist joint or finger joint; 2—moderate swelling or redness of the ankle joint, wrist joint or finger joint; 3—severe swelling or redness of the ankle joint, wrist joint or finger joint; 4—very severe swelling or redness of the ankle joint, wrist joint or finger joint.

JAK2, sequence (O60674 whole entry, species assumed): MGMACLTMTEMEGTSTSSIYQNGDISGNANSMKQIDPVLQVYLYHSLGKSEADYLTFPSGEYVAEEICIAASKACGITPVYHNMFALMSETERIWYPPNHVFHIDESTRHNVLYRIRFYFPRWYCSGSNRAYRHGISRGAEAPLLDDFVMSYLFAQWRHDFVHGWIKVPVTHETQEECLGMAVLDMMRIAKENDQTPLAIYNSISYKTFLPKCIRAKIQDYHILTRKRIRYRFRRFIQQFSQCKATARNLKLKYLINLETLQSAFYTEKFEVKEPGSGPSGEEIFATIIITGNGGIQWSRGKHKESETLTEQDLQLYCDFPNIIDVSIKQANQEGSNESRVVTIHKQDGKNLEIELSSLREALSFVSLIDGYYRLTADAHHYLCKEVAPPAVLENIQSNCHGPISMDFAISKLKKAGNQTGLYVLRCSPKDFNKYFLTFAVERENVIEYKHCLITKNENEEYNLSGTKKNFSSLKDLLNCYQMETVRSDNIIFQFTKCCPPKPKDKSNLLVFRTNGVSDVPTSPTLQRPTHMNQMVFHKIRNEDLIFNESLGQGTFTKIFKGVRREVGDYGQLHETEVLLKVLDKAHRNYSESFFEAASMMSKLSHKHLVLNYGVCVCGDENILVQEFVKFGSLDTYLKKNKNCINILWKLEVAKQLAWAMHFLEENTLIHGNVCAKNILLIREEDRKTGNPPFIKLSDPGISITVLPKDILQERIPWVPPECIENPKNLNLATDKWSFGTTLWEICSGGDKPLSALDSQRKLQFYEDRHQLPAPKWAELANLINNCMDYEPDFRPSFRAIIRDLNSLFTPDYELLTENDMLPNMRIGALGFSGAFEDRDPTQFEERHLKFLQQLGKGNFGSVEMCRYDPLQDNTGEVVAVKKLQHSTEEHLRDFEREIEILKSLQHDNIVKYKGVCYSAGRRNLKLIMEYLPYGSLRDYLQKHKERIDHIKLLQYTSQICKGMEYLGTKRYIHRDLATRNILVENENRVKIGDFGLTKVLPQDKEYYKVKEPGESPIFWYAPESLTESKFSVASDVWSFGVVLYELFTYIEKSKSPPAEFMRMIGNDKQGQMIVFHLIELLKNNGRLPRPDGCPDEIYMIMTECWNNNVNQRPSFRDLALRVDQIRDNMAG
JAK1, sequence (P23458 whole entry, species assumed): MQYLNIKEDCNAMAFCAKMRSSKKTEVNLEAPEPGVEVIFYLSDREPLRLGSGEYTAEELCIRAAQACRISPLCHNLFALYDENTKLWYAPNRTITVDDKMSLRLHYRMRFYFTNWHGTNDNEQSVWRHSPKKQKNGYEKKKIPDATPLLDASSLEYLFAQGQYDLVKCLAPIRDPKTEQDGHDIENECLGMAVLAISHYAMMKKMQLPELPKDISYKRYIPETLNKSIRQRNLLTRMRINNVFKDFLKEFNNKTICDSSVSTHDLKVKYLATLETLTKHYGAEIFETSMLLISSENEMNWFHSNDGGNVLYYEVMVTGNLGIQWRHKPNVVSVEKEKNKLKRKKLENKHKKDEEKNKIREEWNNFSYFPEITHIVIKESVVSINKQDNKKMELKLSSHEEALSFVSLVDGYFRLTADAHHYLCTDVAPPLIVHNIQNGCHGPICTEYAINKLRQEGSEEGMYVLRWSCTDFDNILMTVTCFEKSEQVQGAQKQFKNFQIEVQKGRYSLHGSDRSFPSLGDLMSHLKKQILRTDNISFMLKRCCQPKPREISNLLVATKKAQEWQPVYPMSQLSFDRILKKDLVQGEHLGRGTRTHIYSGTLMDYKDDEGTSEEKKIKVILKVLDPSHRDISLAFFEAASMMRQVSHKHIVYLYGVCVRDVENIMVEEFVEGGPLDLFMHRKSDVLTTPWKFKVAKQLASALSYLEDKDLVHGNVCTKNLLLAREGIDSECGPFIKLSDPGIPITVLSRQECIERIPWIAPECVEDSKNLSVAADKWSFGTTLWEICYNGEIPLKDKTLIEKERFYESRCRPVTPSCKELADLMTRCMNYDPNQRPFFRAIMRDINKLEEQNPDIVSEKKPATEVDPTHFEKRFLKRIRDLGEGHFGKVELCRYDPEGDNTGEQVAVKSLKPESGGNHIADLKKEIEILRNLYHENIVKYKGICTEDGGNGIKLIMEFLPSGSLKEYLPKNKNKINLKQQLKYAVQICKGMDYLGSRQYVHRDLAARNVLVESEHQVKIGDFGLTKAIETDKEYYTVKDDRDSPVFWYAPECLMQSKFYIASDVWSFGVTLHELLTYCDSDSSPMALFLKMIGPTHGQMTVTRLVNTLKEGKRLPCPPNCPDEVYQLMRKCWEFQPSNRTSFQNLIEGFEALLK

Compound: O=C(Nc1nc2cccc(-c3ccc(CN4CCS(=O)(=O)CC4)s3)n2n1)[C@H]1C[C@H]1F (relative stereo) [EXP-5, N-[5-[4-[(1,1-dioxothiomorpholine)methyl]thienyl]-[1,2,4]triazolo[1,5-a]pyridin-2-yl]-cis-2-fluoro-cyclopropanecarboxamide]
- IC50 (JAK1): 50 to 500 nM
- IC50 (JAK2): 50 to 500 nM
- IC50 (Hela cells): 5 to 30 µM
- IC50 (BaF3 cells): < 5 µM
- IC50 (THP1 cells): < 5 µM

Compound: O=C(Nc1nc2cccc(-c3ccc(CN4CCC(F)(F)CC4)s3)n2n1)[C@H]1C[C@@H]1F (relative stereo) [EXP-12, trans-N-[5-[5-[(4,4-difluoro-1-piperidinyl)methyl]-2-thienyl]-[1,2,4]triazolo[1,5-a]pyridin-2-yl]-2-fluorocyclopropanecarboxamide]
- IC50 (JAK1): 50 to 500 nM

Compound: O=C(Nc1nc2cccc(-c3ccc(CN4CCC(OC(F)(F)F)CC4)s3)n2n1)[C@H]1C[C@@H]1F (relative stereo) [EXP-19]
- IC50 (JAK1): > 500 nM

Compound: Cc1cc(-c2cccc3nc(NC(=O)C4CC4)nn23)sc1CN1CCS(=O)(=O)CC1 [EXP-2]
- IC50 (JAK1): 50 to 500 nM
- IC50 (JAK2): 50 to 500 nM
- IC50 (Hela cells): < 5 µM
- IC50 (BaF3 cells): < 5 µM
- IC50 (THP1 cells): < 5 µM

Compound: O=C(Nc1nc2cccc(-c3cnc(CN4CCS(=O)(=O)CC4)s3)n2n1)C1CC1 [EXP-4, N-[5-[2-[(1,1-dioxo-1,4-thiazine-4-)methyl]thiazol-5-]-[1,2,4]triazolo[1,5-a]pyridine-2-]cyclopropylcarboxamide]
- IC50 (JAK1): > 500 nM
- IC50 (Hela cells): 5 to 30 µM
- IC50 (BaF3 cells): 5 to 30 µM
- IC50 (THP1 cells): 5 to 30 µM

Compound: CC1(C(=O)Nc2nc3cccc(-c4ccc(CN5CCS(=O)(=O)CC5)s4)n3n2)CC1(F)F (stereo not drawn) [EXP-7]
- IC50 (JAK1): > 500 nM
- IC50 (JAK2): > 500 nM

Compound: O=C(Nc1nc2cccc(-c3ccc(CN4CCS(=O)(=O)CC4)s3)n2n1)[C@H]1C[C@H]1C(F)(F)F [EXP-8]
- IC50 (JAK1): > 500 nM
- IC50 (JAK2): > 500 nM

Compound: O=C(Nc1nc2cccc(-c3ccc(CN4CCS(=O)(=O)CC4)s3)n2n1)[C@@H]1C[C@H]1C(F)(F)F [EXP-9]
- IC50 (JAK1): 50 to 500 nM
- IC50 (JAK2): 50 to 500 nM

Compound: O=C(Nc1nc2cccc(-c3ccc(CN4CCS(=O)(=O)CC4)s3)n2n1)C1(F)CC1 [EXP-10]
- IC50 (JAK1): > 500 nM

Compound: O=C(Nc1nc2cccc(-c3ccc(CN4CCC(C(F)(F)F)CC4)s3)n2n1)[C@H]1C[C@@H]1F [EXP-11]
- IC50 (JAK1): 50 to 500 nM
- IC50 (JAK2): 50 to 500 nM

Compound: Cc1cc(-c2cccc3nc(NC(=O)C4CC4)nn23)sc1CN1CCC(F)(F)CC1 [EXP-13]
- IC50 (JAK1): 30 to 50 nM
- IC50 (JAK2): 30 to 50 nM

Compound: O=C(Nc1nc2cccc(-c3nnc(CN4CCS(=O)(=O)CC4)s3)n2n1)C1CC1 [EXP-14, N-[5-[5-[(1,1-dioxo-1,4-thiazin-4-)methyl]-1,3,4-thiadiazol-2-]-[1,2,4]triazolo[1,5-a]pyridine-2-]cyclopropylcarboxamide]
- IC50 (JAK1): > 500 nM
- IC50 (JAK2): > 500 nM

Compound: O=C(Nc1nc2cccc(-c3nnc(CN4CCS(=O)(=O)CC4)o3)n2n1)C1CC1 [EXP-15, N-[5-[5-[(1,1-dioxo-1,4-thiazin-4-)methyl]-1,3,4-oxadiazole-2-]-[1,2,4]triazolo[1,5-a]pyridine-2-]cyclopropylcarboxamide]
- IC50 (JAK1): > 500 nM

Compound: O=C(Nc1nc2cccc(-c3ccc(COCCc4cn[nH]c4)s3)n2n1)C1CC1 [EXP-16, N-[5-[5-[2-(1H-pyrazol-4-yl)-ethoxymethyl]-2-thienyl]-[1,2,4]triazolo[1,5-a]pyridin-2-yl]cylopropanecarboxamide]
- IC50 (JAK1): > 500 nM

Compound: O=C(NCCc1nccs1)c1ccc(-c2cccc3nc(NC(=O)C4CC4)nn23)s1 [EXP-17, 5-[2-[2-thiazole-2-ethyl]carboxamido]-thiophene-[1,2,4]triazolo[1,5-a]pyridine-2-cyclopropanecarboxamide]
- IC50 (JAK1): > 500 nM

Compound: O=C(NCCc1nccs1)c1cc(-c2cccc3nc(NC(=O)C4CC4)nn23)cs1 [EXP-18]
- IC50 (JAK1): 50 to 500 nM
- IC50 (JAK2): 50 to 500 nM

Compound: CC[C@@H]1CN(C(=O)NCC(F)(F)F)C[C@@H]1c1cnc2cnc3[nH]ccc3n12 [Upadacitinib, upadacitinib, reference compound]
- Foot volume (ml)/Day (rat CIA model [1]; day 0): 2.611 ± 0.022 mL
- Foot volume (ml)/Day (rat CIA model [1]; day 8): 2.599 ± 0.020 mL
- Foot volume (ml)/Day (rat CIA model [1]; day 11): 2.738 ± 0.110 mL
- Foot volume (ml)/Day (rat CIA model [1]; day 14): 3.675 ± 0.314 mL
- Foot volume (ml)/Day (rat CIA model [1]; day 17): 4.126 ± 0.301 mL
- Foot volume (ml)/Day (rat CIA model [1]; day 21): 4.591 mL
- Foot volume (ml)/Day (rat CIA model [1]; day 24): 4.403 mL
- Foot volume (ml)/Day (rat CIA model [1]; day 28): 3.990 mL
- Body weight (g)/Day (Body weight of CIA rats; day 0): 172.3 ± 1.8 g
- Body weight (g)/Day (Body weight of CIA rats; day 8): 170.4 ± 2.1 g
- Body weight (g)/Day (Body weight of CIA rats; day 11): 169.4 ± 2.8 g
- Body weight (g)/Day (Body weight of CIA rats; day 14): 170 ± 2.2 g
- Body weight (g)/Day (Body weight of CIA rats; day 17): 170.8 ± 3.3 g
- Body weight (g)/Day (Body weight of CIA rats; day 21): 168.6 ± 2.9 g
- Body weight (g)/Day (Body weight of CIA rats; day 24): 165.9 ± 2.9 g
- Body weight (g)/Day (Body weight of CIA rats; day 28): 170.5 ± 3.1 g
- Arthritis index/Day (rat CIA model [2]; day 0): 0 ± 0
- Arthritis index/Day (rat CIA model [2]; day 8): 0 ± 0
- Arthritis index/Day (rat CIA model [2]; day 11): 0.63 ± 0.38
- Arthritis index/Day (rat CIA model [2]; day 14): 3.50 ± 0.73
- Arthritis index/Day (rat CIA model [2]; day 17): 5.50 ± 1.00
- Arthritis index/Day (rat CIA model [2]; day 21): 9.00 ± 1.07
- Arthritis index/Day (rat CIA model [2]; day 24): 9.38 ± 0.71
